This note sets out measurements from US5723609A, “Bis (hydroxymethyl) cyclobutyl purines” (E. R. Squibb & Sons, Inc., priority 1989, dated 1998).

For one experiment, the system named is HSV-1. The experiment can be described thus: HSV-1 plaque reduction antiviral assay in WI-38 cell monolayers. It is filed as cell-based, herpes simplex virus type 1. To be noted: Human alphaherpesvirus 1, 96 h; HSV-1 strain Schooler; WI-38 cells; 4 days at 37° C.; at least 50% plaque reduction; read-out: ID50 (the source's name). The method, then: (§1) Assays were performed in cell culture systems to determine the concentrations of compounds that are effective in preventing several kinds of viral infections.
(§2) HSV-1 (herpes simplex virus type 1, strain Schooler), HSV-2 (herpes simplex virus type 2, strain 186), VZV (varicella zoster virus, strain ELLEN), HCMV (human cytomegalovirus, strain AD 169), MuLV (murine leukemia virus, strain CAS), HIV (human immunodeficiency virus, strain HTLV-IIIB).
(§3) HSV-1, HSV-2, HCMV, and VZV antiviral assays:
(§4) Virus was adsorbed to WI-38 cell culture monolayers in 6 well culture plates (Costar, Cambridge, Mass.) for 1 hour prior to addition of maintenance medium containing duplicate dilutions of the test compound. Inhibition of plaque development was evaluated on fixed and stained monolayers after 4 days incubation at 37° C. for HSV-1 and HSV-2 and after 6-7 days incubation at 37° C. for HCMV and VZV. ID50 values were determined from the drug concentration which conferred at least a 50% plaque reduction compared to virus controls.

The next experiment deals with HSV-2. In words: HSV-2 plaque reduction antiviral assay in WI-38 cell monolayers. It is filed as cell-based, herpes simplex virus type 2, strain 186. The method, then: as §1, §2, §3, §4
A further experiment has as its system VZV. The experiment can be described thus: VZV plaque reduction antiviral assay in WI-38 cell monolayers. It is filed as cell-based, varicella zoster virus. As to conditions: Human alphaherpesvirus 3; VZV strain ELLEN; WI-38 cells; 6-7 days at 37° C.; at least 50% plaque reduction; read-out: ID50 (the source's name). As for the experimental part: as §1, §2, §3, §4

A further experiment deals with HCMV. The experiment can be described thus: HCMV plaque reduction antiviral assay in WI-38 cell monolayers. It is filed as cell-based, human cytomegalovirus. To be noted: Human betaherpesvirus 5; HCMV strain AD 169; WI-38 cells; 6-7 days at 37° C.; at least 50% plaque reduction; read-out: ID50 (the source's name). The method, then:
as §1, §2, §3, §4

In the next experiment the test system is HIV. In words: HIV antiviral assay, cytopathic effect in CEM cells (XTT-PMS). As to conditions: Human immunodeficiency virus 1, CCRF-CEM, 168 h, HIV strain HTLV-IIIB, 7 days at 37° C., inhibits CPE by 50%, read-out: ID50 (the source's name). The format is cell-based. As for the experimental part: as §1, §2
HIV antiviral assay: Suspensions of CEM(Nara and Fischinger, Nature, 332:469, 1988) cells were infected at a multiplicity of infection (e.g. virus/cell) of 0.12 with HIV (strain HTLV-III B). […] Following incubation, viable cell numbers were counted in each well using a colorimetric assay following incubation of cells with XTT-PMS solution (XTT tetrazolium reagent plus phenazine methosulfate PMS).
Percent reduction of vital cytopathic effect (CPE) in drug treated compared to untreated virus infected cells, and percent reduction of cell viability in drug treated uninfected cells compared to untreated controls were calculated and plotted versus the drug concentrations tested. […]

The next experiment relates to MuLV. In words: MuLV antiviral assay, syncytial plaques (SC-1 cells, XC cell overlay). The format is cell-based. To be noted: Murine leukemia virus, SC1, MuLV strain CAS, read-out: ID50 (the source's name). As for the experimental part: as §1, §2
Antiviral assays using MuLV were performed with some modification, as described by Rowe et al. and Shannon et al., SC-1 cells were planted at approximately 2×10^5 cell per well in 6 well plates. After overnight incubation at 37° C., the cell cultures were sensitized with DEAE-Dextran for one hour at 37° C., rinsed and inoculated with MuLV. Cultures were re-fed with growth medium containing different concentrations of the test compound. After three more days at 37° C., cultures were re-fed with fresh medium plus test compounds and incubated at 37° C. for an additional 3 days. Cultures were then washed to remove medium, ultraviolet light irradiated, and planted with approximately 5×10^5 XC cells per well in cell growth medium containing the appropriate concentration of the test compound. […] Finally the cultures were rinsed, stained and syncytial plaques were counted.

Setting [1] is: Human alphaherpesvirus 2, 96 h, HSV-2 strain 186, WI-38 cells, 4 days at 37° C., at least 50% plaque reduction, read-out: ID50 (the source's name).
Setting [2] is: Human alphaherpesvirus 2, WI-38, 96 h, read-out: ID50.

Like-named read-outs stand apart in the source and are kept apart here. A value given as a limit tells only on which side of the number the result lay.

Turning to `Nc1ccn([C@@H]2C[C@H](CO)[C@H]2CO)c(=O)n1` (relative stereo) [(1α,2β,3α)-4-Amino-1-[2,3-bis(hydroxymethyl)cyclobutyl]-2(1H)-pyrimidinone], the IC50 was 444 µM in the experiment with HSV-1, 444 µM in the experiment with HSV-2 (setting [1]), 22 µM in the experiment on VZV and 22 to 44 µM in the experiment on HCMV.
On to `Nc1nc2c(nnn2[C@@H]2C[C@H](CO)[C@H]2CO)c(=O)[nH]1` (relative stereo) [(1α,2β,3α)-5-Amino-3-[2,3-bis(hydroxymethyl)cyclobutyl]-3,6-dihydro-7H-1,2,3-triazolo[4,5-d]pyrimidin-7-one], for which the IC50 with HSV-1 is 7.5 µM; in the experiment with HSV-2 (setting [1]), 7.5 µM; with VZV, 3.8 to 38 µM; in the experiment with HCMV it was 376 µM.
For the compound `O=c1[nH]c(=O)n([C@@H]2C[C@H](CO)[C@H]2CO)cc1/C=C/Br` (relative stereo) [[1α(E),2β,3α]-1-[2,3-Bis(hydroxymethyl)cyclobutyl]-5-(2-bromoethenyl)-2,4(1H,3H)pyrimidinedione], the IC50 in the experiment on HSV-1 is 10 to 30 µM; in the experiment with HSV-2 (setting [2]) it was greater than 302 µM; in the experiment with VZV, 0.03 to 0.06 µM; in the experiment on HCMV, greater than 302 µM.
`Nc1ncnc2c1ncn2[C@@H]1C[C@H](CO)[C@H]1CO` (relative stereo) [(1α,2β,3α)-3-(6-Amino-9H-purin-9-yl)-1,2-cyclobutanedimethanol]: the IC50 was 8 µM in the experiment with HSV-1; 4 to 8 µM in the experiment with HSV-2 (setting [1]); 0.8 to 2 µM with VZV; 0.8 µM in the experiment on HCMV; 6.8 µM in the experiment with HIV.
`O=c1[nH]c(=O)n([C@@H]2C[C@H](CO)[C@H]2CO)cc1I` (relative stereo) [(1α,2β,3α)-1-[2,3-Bis(hydroxymethyl)cyclobutyl]-5-iodo-2,4(1H,3H)-pyrimidinedione]: the IC50 in the experiment with HSV-1 is 6 to 14 µM; with HSV-2 (setting [2]) it was greater than 284 µM; in the experiment on VZV, 14 to 28 µM; in the experiment with HCMV, greater than 284 µM.
As for `Nc1nc2c(ncn2[C@@H]2C[C@H](CO)[C@H]2CO)c(=O)[nH]1` (relative stereo) [(1α,2β,3α)-9-[2,3-Bis(hydroxymethyl)cyclobutyl]guanine], the IC50 was 0.08 to 0.2 µM in the experiment with HSV-1; 0.04 to 0.08 µM in the experiment with HSV-2 (setting [1]); 0.2 µM in the experiment on VZV; 3.8 µM in the experiment on HCMV; 3.8 µM in the experiment with MuLV; 30 µM with HIV.
